# According to patent US20240368566A1, “PYK2-DERIVED PEPTIDES FOR INHIBITING INVADOPODIA-MEDIATED CANCER METASTASIS” (BAR-ILAN UNIVERSITY, priority 2023, published 2024):
# Where no end group is shown, it is not given here.
# B1: Pyk2-PRR2 peptide (SEQ ID NO: 1) (peptide)
# peptide: TAFQEPPPKPSRPKYRPPP
# notes: Unlabeled synthetic peptide as used in the NMR experiments; Positions count on UniProt Q14289
# Tests used:
# MDA-MB-231 cells [1] = test: Invadopodium precursor formation assay; type: cell-based, human; details: 4 h, 0.1, 1 or 5 μM peptide
# Experimental: The invadopodium precursor formation assay was performed as described in Genna et al., 2018 (supra). Briefly, gelatin was conjugated to Alexa 405 dye (Thermo Fisher Scientific). MatTek dishes were treated with 1 N HCl and coated with 50 μg/ml poly-L-lysine. A 0.2% gelatin solution was prepared in PBS, and a 1:20 mixture of Alexa 405-labeled gelatin/unlabeled gelatin was warmed to 37° C. before addition to the poly-L-lysine coated plates. Gelatin was cross-linked with 0.01% glutaraldehyde followed by quenching with 5 mg/ml sodium borohydride. 125,000 MDA-MB-231 cells were plated on Alexa 405-labeled gelatin plates in the presence of 0.1, 1, or 5 μM of Pyk2-PRR peptides or scrambled control for 4 h. At the end of incubation, cells were fixed in 3.7% paraformaldehyde, permeabilized with 0.1% Triton X-100, blocked with 1% FBS, 1% BSA in PBS, and labeled with anti-Tks5 and anti-cortactin. Images were acquired using an inverted fluorescent microscope (Leica AF6000; 63×, NA 1.4, oil objective, Leica LAS AF acquisition software) (Wetzlar, Germany) equipped with an ORCA-Flash 4.0 V2 digital CMOS camera (Hamamatsu Photonics, Shizuoka, Japan).
# 4T1 cells = test: Spontaneous lung metastasis clonogenic assay in 4T1 xenograft mouse model; type: in vivo, BALB/c female mice; details: 10 mg/kg once a day for eight days, intraperitoneal injection, HIV-TAT fused peptide; versus scrambled control
# Experimental: All experimental procedures were conducted following the Federation of Laboratory Animal Science Association (FELSA) and were approved by the Bar-Ilan University animal use and care committee. Mouse xenograft tumors were generated by injecting 10^6 4T1 cells resuspended in 20% collagen I (BD Biosciences, Franklin Lakes, NJ, USA) in PBS into the lower-left mammary gland of 8-week-old BALB/c female mice. […] 4T1 cells have intrinsic resistance to 6-thioguanine, which enables precise quantification of metastatic cells, even when they are disseminated at sub-microscopic levels at distant organs, upon excision and digestion of selected organs. The clonogenic assay is based on a principle by which one colony represents one metastatic cell. Briefly, spontaneous lung metastasis was measured in BALB/c mice bearing orthotopic 4T1 tumors of equal size (1-1.2 cm in diameter). Lungs were excised and minced and plated in RPMI/10% FBS in the presence of 6-thioguanine to select for tumor cells only. Cells were plated in a 5% CO2 incubator at 37° C. for 14 days to form 4T1 colonies. On day 14 after plating, the medium was removed from dishes, and colonies were fixed in 4% paraformaldehyde for one hour at room temperature. Colonies were then stained in 2% crystal violet solution and thoroughly washed with PBS. Plates were allowed to air dry, and colonies in each plate were quantified. […]
# MDA-MB-231 cells [2] = test: ECM degradation assay; type: cell-based, human; details: 24 h on fluorescent fibronectin/gelatin matrix; compared to control peptide
# Experimental: The in vitro matrix degradation assay was performed as described in Genna et al., 2018 (supra). Briefly, MatTek dishes were treated with 2.5% gelatin/2.5% sucrose, cross-linked with 0.5% glutaraldehyde, treated with 10 μg/ml of fluorescently labeled fibronectin (Alexa 568; Invitrogen, Thermo Fischer Scientific), and then with 1 mg/ml NaBH4 in PBS. 125,000 cells were plated on the fibronectin/gelatin matrix in Pyk2-PRR or control peptides and allowed to degrade for 24 h. Cells were then fixed in 3.7% paraformaldehyde, and random fields were imaged using an inverted fluorescent microscope (Leica AF6000; 40×, NA 1.3, oil objective). ECM degradation was analyzed by quantifying the average degraded area in pixels per field using ImageJ.
# [3] = test system: interaction between Pyk2 and cortactin in invadopodia; test: Acceptor photobleaching FRET assay; type: cell-based, human; details: 0.1, 1, 5 μM peptide; mature matrix-degrading invadopodia
# Experimental: Acceptor photobleaching experiments were performed as described in Genna et al., 2018 (supra). In brief, cortactin-TagRFP MDA-MB-231 cells were plated on Alexa 405 gelatin in a medium containing Pyk2-PRR or scrambled control peptides at 0.1, 1, and 5 μM concentration, fixed, and immunostained with pY402-Pyk2/Alexa Fluor 488-goat anti-rabbit (donor) and cortactin/Alexa Fluor 555-goat anti-mouse (acceptor). As a control, cells were stained with Tks5/Alexa Fluor 488-goat anti-rabbit (donor) and cortactin/Alexa Fluor 555-goat anti-mouse (acceptor). Co-localization of cortactin with degradation holes in Alexa 405-labeled gelatin was used to identify mature degrading invadopodia. For all FRET experiments, cells were imaged in PBS at room temperature on a laser-scanning inverted confocal microscope (Zeiss LSM780; 60×, NA 1.4, oil objective). A region of interest surrounding invadopodia was bleached using 100% 561-nm laser power (acceptor channel), and images were acquired in both the 488 nm and the 561 nm channels before and after bleaching. FRET efficiency was calculated as the E=1−(donor pre/donor post) in background-subtracted images and was corrected for fluctuations in laser power and donor bleaching in ImageJ.
# [4] = target: T1, cortactin-SH3 domain (mouse cortactin SH3 domain, GenBank ID U03184; nucleotides 1468-1641) (mouse, UniProt Q60598 490-546, isotopically labeled (15N, 13C and/or 2H) for NMR); test: NMR chemical shift titration (1H,15N-HSQC), unlabeled peptide into 15N-SH3
# T1 construct: domain: SH3 domain; also called purified cortactin-SH3
# T1 sequence (Q60598 490-546 limits assumed, one chain of several): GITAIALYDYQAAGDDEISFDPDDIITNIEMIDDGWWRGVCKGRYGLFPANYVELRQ
# [5] = target: T1, cortactin-SH3 domain (mouse cortactin …); test: NMR chemical shift titration
Molecule,"mature, matrix-degrading invadopodia (MDA-MB-231 cells [1]; co-localization with degradation regions)",immature invadopodium precursors (MDA-MB-231 cells [1]; cortactin and Tks5 co-localization),lung metastases (6-thioguanine-resistant colonies) (4T1 cells),matrix degradation (degradation area) (MDA-MB-231 cells [2]),interaction between Pyk2 and cortactin in invadopodia (FRET) [3],Kd [4],fold higher affinity than Pyk2-PRR3 [5]
"TAFQEPAPKASQAQYRPPP [Pyk2 super-mutant, TAFQEPAPKASQAQYRPPP]",small but significant reduction,no significant effect,no significant differences in colony number,small but significant reduction,does not significantly inhibit,–,–
B1,–,–,–,–,–,40 µM,16 fold
